The target of data set [1] is T1, CpIMPDH (Cryptosporidium parvum, UniProt Q8T6T2). As to the kind of experiment: CpIMPDH enzyme inhibition (without or with BSA). It counts as biochemical. The settings on record: compound not previously described. The procedure:
We wondered if some compounds might be binding nonspecifically to other proteins. To test this hypothesis, CpIMPDH inhibition was also evaluated in the presence of BSA [22]. […] Selectivity in the T. gondii model also correlates well with the potency of enzyme inhibition in the presence of BSA (Figure 7C; r = −0.92, p<0.0001). These observations indicate that the IC50 value in the presence of BSA is a useful proxy for antiparasitic activity modelled by T. gondii-CpIMPDH proliferation.

A further data set relates to T. gondii-CpIMPDH. As to the kind of experiment: Fluorescent T. gondii growth assay, CpIMPDH reporter strain. The settings on record: for Selectivity = EC50(T. gondii-wild-type)/EC50(T. gondii-CpIMPDH): Figure 5 Sel; for EC50: Toxoplasma gondii, read-out: T. gondii model EC50 CpIMPDH, T. gondii-CpIMPDH, absence of xanthine. It counts as cell-based, Toxoplasma gondii. The text has this: (§1) Wild-type T. gondii and T. gondii-ΔHXGPRT parasites were transfected with plasmid ptubYFPYFsagCAT [37] which drives constitutive cytoplasmic expression of two copies of the yellow fluorescent protein. Similarly, plasmid pCTR2T [38] was transfected into T. gondii-CpIMPDH resulting in constitutive cytoplasmic expression of a tandem of the tomato variant of the red fluorescent protein [39]. Fluorescent parasites were selected and cloned by cell sorting using a MoFlo Legacy instrument (Beckman Coulter, Inc). Growth of fluorescent clones was monitored in 96 well plates as previously described. Briefly, fluorescence was read daily with a SpectraMax M22/M2e (Molecular Devices) plate reader (Ex 485, Em 530) for 6–7 days. For each of the three fluorescent T. gondii clones percent growth inhibition was calculated on a day within the exponential phase of growth for the purpose of determining an IC50 for each compound.
To facilitate screening of antiparasitic activity, we constructed a T. gondii reporter parasite that mirrors the Cryptosporidium purine metabolism. Figure 1 summarizes the main differences between the two parasites in this pathway. We started with a T. gondii knockout mutant that, like C. parvum, lacks the ability to salvage xanthine and guanine via HXGPRT (T. gondii-ΔHXGPRT [41]) and introduced the CpIMPDH gene under the control of a T. gondii promoter. Next the native T. gondii IMPDH gene was disrupted by replacing the entire coding sequence with a chloramphenicol acetyl transferase cassette using a new cosmid-based gene targeting approach. […] This manipulation created strain T. gondii-CpIMPDH-ΔHXGPRT-ΔTgIMPDH. Lastly, we introduced a fluorescent protein cassette and isolated stable transgenic parasites by cell sorting. The resulting strain is referred to as T. gondii-CpIMPDH. […] We similarly engineered fluorescent versions of wild-type T. gondii and T. gondii-ΔHXGPRT to serve as controls.
(§2) Supplementary file pntd.0000794.s002.tif: Figure S2 Obtaining an EC50 value for T. gondii growth. Fluorescent T. gondii parasites are seeded into 96-well plates and spiked with test compound. Fluorescence is measured daily with a SpectraMax M22/M2e (Molecular Devices) plate reader for 6–7 days. The fluorescence readings on a day during the exponential phase of the growth curve, for example day 4 in A, are used to calculated percent growth inhibition. These values are fitted using the 4 parameter model y = D+(A–D)/(1+(x/C)^B) where D is the minimum value, A is the maximum value, C is the EC50 and B is the Hill coefficient, using the SoftMax Pro v5 software, as illustrated in B. The absolute EC50 is recorded at the x intercept where y = 50. (0.33 MB TIF) Click here for additional data file.

The next data set deals with wild-type T. gondii. As to the kind of experiment: Fluorescent T. gondii growth assay, wild-type strain. The settings on record: wild-type T. gondii, no added xanthine, read-out: T. gondii model EC50 WT. It counts as cell-based, Toxoplasma gondii.
Description: as §1, §2

The next data set relates to T. gondii-ΔHXGPRT. As to the kind of experiment: Fluorescent T. gondii growth assay, ΔHXGPRT strain. It counts as cell-based. The settings on record: Toxoplasma gondii, read-out: T. gondii model EC50 ΔHXGPRT, T. gondii-ΔHXGPRT.
Description: as §1, §2

The test system of a further data set is HCT-8 cells. As to the kind of experiment: Fluorescent HCT-8 host cell growth assay. It counts as cell-based, human. The settings on record: for activity at 25 µM: Homo sapiens, HCT-8, compound at 25 μM, relative to DMSO alone; for inhibition of HCT-8 cell growth: at 12.5 µM and 25 µM. The procedure:
HCT-8 cells were transfected with plasmid pmaxGFP (Amaxa) using Lipofectamine (Invitrogen). Fluorescent lines were then selected and cloned using cell sorting. Confluent monolayers of pmaxGFP expressing cells were harvested from T75 flasks and passed through a 40 µm cell strainer. Cells were seeded at 4000 cells per well into black, optical quality, thin bottom, 96-well plates. All test compounds were diluted in DMSO as described. The fluorescence was read daily with a SpectraMax M22/M2e (Molecular Devices) plate reader (Ex 485, Em 530) for 6–7 days. Percent inhibition was calculated on a day within the exponential phase of growth.

Data set [2] relates to C. parvum. As to the kind of experiment: High-content imaging C. parvum growth assay (FITC-VVL). It counts as cell-based, Cryptosporidium parvum. The settings on record: for EC50: Cryptosporidium parvum, HCT-8, 48 h, growth in HCT-8 cells, 48 hours. The procedure:
The human ileocecal adenocarcinoma epithelial cell line, HCT-8, was used to support C. parvum infection in vitro. HCT-8 cells were maintained in RPMI-1640 (Hyclone) supplemented with 10% FBS, 1 mM sodium pyruvate, 50 U/m penicillin, 50 µg/ml streptomycin, and amphotericin B. Cryptosporidium parvum oocysts were a kind gift from either Dr. Mead (Emory University) or Dr. Kissinger (University of Georgia). HCT-8 cells (2×10^5) were seeded into black, optical quality, thin bottom, 96-well plates (DB Falcon) to achieve a 70% confluent monolayer on the day of infection. To facilitate oocyst excystation, a procedure described by Gut et al., was followed. Briefly, oocysts were washed twice with 1 ml of PBS (pH 7.2), incubated for 10 minutes at 37°C in 1 ml 10 mM of HCl and then incubated for a further 10 minutes in 0.2 ml of 200 µM sodium taurocholate at 15°C [40]. This oocyst suspension was diluted directly with DMEM (Hyclone) supplemented with 2% FBS, 50 U/ml penicillin, 50 µg/ml streptomycin, amphotericin B and 0.2 mM L-glutamine (infection medium) to inoculate host cell monolayers at 5×10^5 oocysts per well. Host cell monolayers were incubated for 3 hours at 37°C prior to removal of unexcysted oocysts by aspiration and PBS wash. Infection medium was then added to the monolayers and infection was allowed to progress for 48 hours.
The VVL IFA was performed in a 96-well format. Following 48 hours of culture C. parvum infected HCT-8 cells were washed with PBS and fixed with 0.2 ml/well of 3% paraformaldehyde/PBS, permeabilized with 0.25% Triton-X-100/PBS and blocked with 4% BSA/PBS. 0.1 ml of fluorescein (FITC)-conjugated VVL (Vector Labs 0.5 µg/ml) in 1% BSA/PBS was applied to wells and incubated for 45 minutes. The plates were washed twice with 200 µl/well of PBS. In the first wash DAPI was included at 0.1 µg/ml. Finally 200 µl/well of PBS was added to the plates prior to storage at 4°C protected from light.
Confocal images were acquired using a BD Biosciences Bioimager P435. The instrument was programmed to automatically change position and focus, capture montage images of 9–16, 40× fields per well, and then compress and save the image files. Object finding algorithms were developed for the recognition of FITC-VVL labelled C. parvum parasites and DAPI labelled host cell nuclei using Attovision Software (BD Biosciences). Briefly, to identify FITC-VVL labelled parasites, the object finding algorithm included, a flat field correction, a polygon shape setting, a 3×3 rolling ball filter, manual pixel intensity thresholding (100 min – 4095 max), and minimum and maximum object size cut-offs of 5 pixels and 350 pixels respectively. The algorithm optimised for finding DAPI labelled host cell nuclei also included flat field correction and polygon shape setting, but applied a 25×25 rolling ball filter which is more suitable for larger objects, an automated pixel intensity threshold, minimum and maximum object size cut-offs of 200 pixels and 4000 pixels respectively, and a watershed step with an erosion factor of 8 to aid in the separation of adjacent densely packed nuclei. Note that the intensity and area size cut off exclude detection of the much smaller parasite nuclei (the human genome is three hundred times larger than the C. parvum genome).
The object finding analysis steps described above recorded the number and area of objects per montage image. The output files along with a plate map file were then passed to an automated analysis pipeline (Pipeline Pilot Software, Accelrys) to calculate the mean number of parasites, the ratio of parasite number to host cell nuclei number, the mean area of parasites and host cell nuclei by well, and the percentage growth by treatment as compared to the no drug control. These analyses were exported in graphical format for each plate and the numerical values tabulated in html format. […]

The target of data set [3] is T1, CpIMPDH. The settings on record: cited from earlier work.
Data set [4] deals with C. parvum. The settings on record: several previous studies; read-out: reported EC50 values for C. parvum growth; cited from earlier work.
Where [5] appears, read: read-out: CpIMPDH Inhibition IC50 + BSA.

Molecules are shown by their SMILES. Read-outs that look alike come from different tables or passages of the source.

T1 sequence (Q8T6T2 whole entry): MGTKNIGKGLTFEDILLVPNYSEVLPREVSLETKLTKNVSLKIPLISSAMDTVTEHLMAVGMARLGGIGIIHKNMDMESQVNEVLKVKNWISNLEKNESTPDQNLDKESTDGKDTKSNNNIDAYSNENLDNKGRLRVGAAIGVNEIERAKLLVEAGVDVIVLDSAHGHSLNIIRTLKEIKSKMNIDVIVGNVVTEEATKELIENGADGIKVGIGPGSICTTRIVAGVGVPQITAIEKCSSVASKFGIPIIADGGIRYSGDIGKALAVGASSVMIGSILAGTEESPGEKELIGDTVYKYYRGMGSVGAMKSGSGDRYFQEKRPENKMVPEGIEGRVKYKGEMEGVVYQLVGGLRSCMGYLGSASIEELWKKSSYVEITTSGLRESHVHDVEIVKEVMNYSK

For `CC(Oc1cccc2ncccc12)c1cn(-c2ccc(Cl)cc2)nn1` (centres unmarked) [Compound A99], the 50% inhibitory concentration (IC50) came to 0.076 ± 0.009 µM at CpIMPDH [1] (in the presence of BSA) and 0.031 ± 0.001 µM at CpIMPDH [1] (without BSA). Moreover, in the data set with T. gondii-CpIMPDH, the “selectivity for the T. gondii-CpIMPDH parasite over wild-type T. gondii” value (shortened to “selectivity … over wild-type T. gondii”) is recorded as at least 17 fold. In the data set with T. gondii-CpIMPDH, the “Selectivity = EC50(T. gondii-wild-type)/EC50(T. gondii-CpIMPDH)” value is recorded as over 17. Besides, the 50% effective concentration (EC50) is under 0.2 µM with T. gondii-CpIMPDH, 4.7 µM in the data set on wild-type T. gondii (Toxoplasma gondii), 3.4 µM in the data set with T. gondii-ΔHXGPRT and 12 to 25 µM with C. parvum [2]. Further, in the data set on HCT-8 cells, the activity at 25 µM stood at 58 ± 8%.
On to `CC(Oc1cc[n+]([O-])c2ccccc12)c1cn(-c2ccc(Cl)cc2)nn1` (centres unmarked) [Compound A100], for which the 50% inhibitory concentration (IC50) at CpIMPDH [3] (read-out: CpIMPDH Inhibition IC50 - BSA) is 0.03 ± 0.01 µM. Also, in the data set with T. gondii-CpIMPDH, the “selectivity … over wild-type T. gondii” value is on record as at least 36 fold. Besides, the concentration giving a half-maximal response (EC50) in the data set on T. gondii-CpIMPDH was 0.5 µM; in the data set on wild-type T. gondii (Toxoplasma gondii), over 25 µM; in the data set with wild-type T. gondii, at least 20 µM; in the data set with T. gondii-ΔHXGPRT, at least 25 µM; in the data set with C. parvum [2], 12 to 25 µM. Besides, the activity at 25 µM in the data set with HCT-8 cells turned out to be 44 ± 10%. In the data set on HCT-8 cells, the “inhibition of HCT-8 cell growth” value is recorded as “inhibit HCT-8 cell growth significantly”.
For the compound `CC(Oc1cccc2c1ccc[n+]2[O-])c1cn(-c2ccc(Cl)cc2)nn1` (centres unmarked) [Compound A102], the 50% inhibitory concentration (IC50) on CpIMPDH [3] (setting [5]) was 0.06 ± 0.02 µM. In addition, in the data set with T. gondii-CpIMPDH, the “selectivity … over wild-type T. gondii” value was at least 36 fold. In the data set on T. gondii-CpIMPDH, the “Selectivity = EC50(T. gondii-wild-type)/EC50(T. gondii-CpIMPDH)” value was determined as 76. Further, the EC50 in the data set on T. gondii-CpIMPDH is 0.3 ± 0.1 µM; with wild-type T. gondii (Toxoplasma gondii), 23 ± 3 µM; in the data set on wild-type T. gondii, at least 20 µM; with T. gondii-ΔHXGPRT, 20 ± 5 µM; in the data set with C. parvum [2], 12 to 25 µM. This compound also displayed an activity at 25 µM in the data set with HCT-8 cells of 62%. Also, the “inhibition of HCT-8 cell growth” value with HCT-8 cells is given as “inhibit HCT-8 cell growth significantly”.
For `C[C@@H](Oc1cccc2c1ccc[n+]2[O-])c1cn(-c2ccc(Cl)cc2)nn1` [Compound A109], the 50% inhibitory concentration (IC50) at CpIMPDH [3] (setting [5]) was 0.05 ± 0.01 µM. In addition, the “selectivity … over wild-type T. gondii” value in the data set on T. gondii-CpIMPDH is at least 36 fold. The “Selectivity = EC50(T. gondii-wild-type)/EC50(T. gondii-CpIMPDH)” value in the data set on T. gondii-CpIMPDH was over 86. Also, the 50% effective concentration (EC50) was 0.3 ± 0.1 µM in the data set with T. gondii-CpIMPDH, over 25 µM in the data set with wild-type T. gondii (Toxoplasma gondii), over 25 µM with T. gondii-ΔHXGPRT and 12 to 25 µM with C. parvum [2]. In the data set with HCT-8 cells, this compound returned an activity at 25 µM of 89 ± 16%.
For `NC[C@@H]1O[C@H](O[C@H]2[C@@H](O)[C@H](O[C@@H]3[C@@H](O)[C@H](N)C[C@H](N)[C@H]3O[C@H]3O[C@H](CO)[C@@H](O)[C@H](O)[C@H]3N)O[C@@H]2CO)[C@H](N)[C@@H](O)[C@@H]1O` [paromomycin, reference compound], the concentration for a half-maximal effect (EC50) with C. parvum [4] was 65 to 130 µM; with C. parvum [2] it was 97 µM. Moreover, in the data set with HCT-8 cells (in words), the “effect on host cell (HCT-8) growth” value is reported as “negligible effects on the growth of these cells”. Also, the mean parasite area result with C. parvum [2] (relative to DMSO alone) is listed as “significantly reduce the mean parasite area in a dose responsive manner”. The “parasites observed relative to the no drug control” value with C. parvum [2] (very high concentrations of paromomycin) is reported as about 30%.

As usually defined, the IC50 is the concentration needed to halve the response being measured. One may read the EC50 as the midpoint of the concentration-response curve.

Values taken from article PMC2919388, “A Screening Pipeline for Antiparasitic Agents Targeting Cryptosporidium Inosine Monophosphate Dehydrogenase” (PLoS Neglected Tropical Diseases, 2010).
